Results published in paper PMC5874716, “Antimicrobial Peptides for Topical Treatment of Osteomyelitis and Implant-Related Infections: Study in the Spongy Bone” (Pharmaceuticals, 2018).
Non-standard residues stand in square brackets, D forms with d. Residues, ends and D or L forms follow the SMILES beside them. βAla = NCCC(=O)O

Assays:
human erythrocytes = assay: Haemolysis assay; type: cell-based; settings: concentration causing lysis of 50% of human red blood cells; at least three times in duplicates
Protocol: (§1) MIC values for peptides were established by observing growth of treated bacteria in HONEYCOMB 100-well microtiter plates (Helsinki, Finland) using a Bioscreen C instrument (Oy Growth Curves, Helsinki, Finland) as previously described. Haemolytic activity of peptides expressed as the concentration of a peptide required for lysis of 50% of human erythrocytes in the assay (LC50) was measured using a Tecan infinite M200 PRO reader (Tecan Austria GmbH, Grödig, Austria). Blood samples for determining haemolytic activity were obtained from healthy volunteers.

Candida albicans = type: cell-based; settings: Bioscreen C; at least three times in duplicates
Protocol: (§2) Femur heads (ca. 70 pieces) taken from patients during hip replacement surgery were periodically purchased in the period between 2014–2017 as discarded from the bone tissue bank at University Hospital in Motol, Prague, Czech Republic. The reason for the replacements by artificial prosthesis was the worn out cartilage on the surface of their heads. Bone samples were stored at −80 °C under standard conditions of certified tissue banks. In the laboratory, they were kept at +5 °C overnight and then at room temperature for several hours before they could be used for the experiments. The experiments with this material were approved by the Ethics Committee for Multi-Centric Clinical Trials of the University Hospital Motol, Reference No: EK-655/15. Methicillin-resistant S. aureus (MRSA 6271) ATCC 43300 and P. aeruginosa (5482) ATCC 27853 were purchased from the Czech National Collection of Type Cultures, National Institute of Public Health, Prague, Czech Republic. Methicillin-resistant S. aureus (MRSA (L)) and P. aeruginosa (L) were obtained as multi-resistant clinical isolates from Liberec Regional Hospital, Liberec, Czech Republic. Methicillin-resistant S. aureus (MRSA (M)), E. faecalis and S. epidermidis were obtained as clinical isolates from University Hospital in Motol, Prague. Candida albicans (F7-39/IDE99) came from the mycological collection of the Faculty of Medicine, Palacky University, Olomouc, Czech Republic. C. albicans ATCC MYA-2876, C. tropicalis ATCC 750 and C. glabrata DSY565 were kindly provided by Dr. Hana Sychrová from the Institute of Physiology, Academy of Sciences of the Czech Republic, Prague. Vancomycin hydrochloride, gentamicin sulfate, ceftriaxone disodium salt, amphotericin B, fluconazole, and clotrimazole were obtained from Sigma-Aldrich, Prague, Czech Republic.
as §1

[1] = system: MRSA clinical isolate from Liberec Regional Hospital (MRSA (L)); assay: microbe, parasite or virus in culture; type: cell-based; settings: clinical isolate Liberec; Bioscreen C; at least three times in duplicates
Protocol: as §2, §1

[2] = system: S. epidermidis clinical isolate (Motol); assay: microbe, parasite or virus in culture; type: cell-based; settings: clinical isolate Motol; Bioscreen C; at least three times in duplicates
Protocol: as §2, §1

[3] = system: E. faecalis clinical isolate (Motol); assay: microbe, parasite or virus in culture; type: cell-based; settings: clinical isolate Motol; Bioscreen C; at least three times in duplicates
Protocol: as §2, §1

[4] = system: P. aeruginosa clinical isolate from Liberec Regional Hospital; assay: microbe, parasite or virus in culture; type: cell-based; settings: clinical isolate Liberec; Bioscreen C; at least three times in duplicates
Protocol: as §2, §1

[5] = system: MRSA clinical isolate from University Hospital in Motol (MRSA (M)); assay: microbe, parasite or virus in culture; type: cell-based; settings: clinical isolate Motol; Bioscreen C; at least three times in duplicates
Protocol: as §2, §1

MRSA 6271 (ATCC 43300) = assay: microbe, parasite or virus in culture; type: cell-based; settings: growth in 100-well microtiter plates, Bioscreen C; tested at least three times in duplicates
Protocol: as §2, §1

[6] = system: P. aeruginosa (5482) ATCC 27853; assay: microbe, parasite or virus in culture; type: cell-based; settings: Bioscreen C; at least three times in duplicates
Protocol: as §2, §1

P. aeruginosa 5482 = assay: Experimental model of bone infection (human femur head, ChronOS Inject carrier); parameters: species or system Pseudomonas aeruginosa; settings: ChronOS Inject 200 mg blended with 10 mg peptide; 2 days at room temperature; single experiment on one femoral head
Protocol: We usually drilled three to four holes into the spongy part of each bone sample (as space allowed) and then filled the holes with the suspension of microbes (Figure 1a). The next day, the foci of the infection set up in the holes were treated (i) with carrier alone as a control, (ii) with carrier blended with AMP, or (iii) in some cases with a carrier blended with an antibiotic for comparison (Figure 1b). The results of infection eradication were evaluated after two days by counting the bacterial colonies (Figures S1–S3 as illustrative examples) found in the swab taken from each hole after the fillings were removed (Figure 1c).
Three to four holes ca 4 mm in diameter and 8 mm deep were drilled using a surgical spoon at the side of the resection into the spongy part of the femur head. This bone was placed into a beaker cushioned with sterile gauze, which was then drenched with sterile physiological solution. The suspension of selected bacteria (S. aureus, S. epidermidis, P. aeruginosa) in the concentration of 10^9 colony forming units (CFU)/mL in Luria Bertani (LB) medium and E. faecalis in brain-heart infusion (BHI) medium was consecutively infused into each hole in the bone while taking care not to overfill the holes (Figure 1a). […] Following overnight incubation, the numbers of bacterial colonies were counted. The bacterial load was expressed as CFU per hole. […]

C. glabrata DSY565 = assay: Biofilm formation on bone cement (Palacos r) model implants in infected femur head; parameters: species or system Candida glabrata; settings: microbes infiltrated from a hole between implants; 2 days; single experiment
Text: (§3) The poly(methyl methacrylate)-based bone cement with or without AMPs was implanted either inside infected holes or inside non-infected holes. In the latter case, the microbes infiltrated towards the implant from a hole made between them at roughly equal distance from each (Figure 3). This would simulate the authentic situation in which the pathogens can infect an orthopaedic implant by spreading through the bloodstream or contiguously from areas of infection. We evaluated the experiments on the basis of the amounts of microbes released from the biofilms supposedly formed on the surfaces of the implants that were removed from the infected bone samples.
(§4) The bone samples with bored holes inside were prepared and handled as above. The bone cement (Palacos®r, Hereaus Medical GmbH, Wehrheim, Germany) with AMP incorporated was prepared by swift and thorough mixing of the polymer powder component (poly-methylacrylate, methyl methacrylate, 125 mg) and AMP (10 mg) or antibiotic (10 mg) with the liquid monomer (methyl methacrylate, N,N-dimethyl-p-toluidine, hydroquinone and colorant E141, 70 μL). The resulting elastic paste was pressed using a 2 mL plastic syringe into two bored holes, where it polymerized and solidified. The paste without peptide for filling of the remaining two holes was prepared similarly by mixing the powder component (125 mg) and liquid component (68 μL). […]

[7] = system: C. albicans ATCC MYA-2876; assay: as above; parameters: species or system Candida albicans; settings: microbes infiltrated from a hole between implants, 2 days, single experiment
Text: as §3, §4

Micrococcus luteus = assay: Drop diffusion test; type: cell-based; settings: RP-HPLC peak of bone marrow extract containing the three defensins; not shown
Text: In several cases when an all-D isomeric peptide alone, or in combination with its parent L-isomer in a 1:4 ratio in the blend with the carrier were applied to the infected hole, we observed a zero microbial count. We suppose that the contribution of D-isomeric peptides (II, VII, X, XII) to bacterial eradication was due to their resistance to proteases either exerted by bacteria or originated from the cells of the bone tissue. In these cases, we detected intact all-D peptide in the extract of the fillings (recovered from the infected hole after completing the experiment) by Reversed-Phase (RP)-HPLC analysis (not shown). On the other hand, the RP-HPLC analyses of the extracts of the fillings containing solely L-peptides indicated partial to complete digestion of peptides by proteases. Nevertheless, we assume that in all cases presented in Table 3 and Figure 2, it was the fast killing effect of AMPs on bacteria that played a conclusive role in eradicating the infection in the bone samples. When carrying out the experiments, we had to take into account that the bacterial load in an infected hole also could be reduced by components of the bone marrow immune system, including blood cells such as neutrophils. […] In one of the RP-HPLC peaks, we detected by mass spectrometry the presence of three human α-defensins HNP1, HNP2, and HNP3 [32] […]

Compound	Haemolytic Activity LC50 (human erythrocytes) [µM]	Antimicrobial Activity MIC, C. a. (Candida albicans) [µM]	Antimicrobial Activity MIC, MRSA a [1] [µM]	Antimicrobial Activity MIC, S. e. b [2] [µM]	Antimicrobial Activity MIC, E. f. b [3] [µM]	Antimicrobial Activity MIC, P. a. a [4] [µM]	Antimicrobial Activity MIC, MRSA b [5] [µM]	Antimicrobial Activity MIC, MRSA 6271 (MRSA 6271 (ATCC 43300)) [µM]	Antimicrobial Activity MIC, P. a. 5482 [6] [µM]	Colony Forming Units (CFU)/Hole, P. a. 5482 (P. aeruginosa 5482)	CFU/Implant, C. glabrata (C. glabrata DSY565)	CFU/Implant, C. albicans c [7]	antimicrobial activity in drop diffusion tests (Micrococcus luteus)
CC[C@H](C)[C@H](NC(=O)[C@H](CCCCN)NC(=O)[C@H](CCCCN)NC(=O)[C@H](CC(C)C)NC(=O)[C@H](CC(C)C)NC(=O)[C@H](CCCCN)NC(=O)[C@H](CCSC)NC(=O)[C@H](Cc1c[nH]c2ccccc12)NC(=O)[C@H](CCCCN)NC(=O)CCN)C(=O)N[C@@H](CC(C)C)C(=O)N[C@@H](CCCCN)C(N)=O [XI] (H-[βAla]KWMKLLKKILK-NH2; N-terminus assumed)	270	11.3	5.7	2.8	59.0	7.0	10.0	11.3	2.8	2.0 × 10^5 CFU/hole	–	–	–
Clc1ccccc1C(c1ccccc1)(c1ccccc1)n1ccnc1 [Clotrimazole, clotrimazole, reference compound]	–	–	–	–	–	–	–	–	–	–	1.2 × 10^6 CFU/implant	–	–
OC(Cn1cncn1)(Cn1cncn1)c1ccc(F)cc1F [Fluconazole, fluconazole, reference compound]	–	–	–	–	–	–	–	–	–	–	–	3.6 × 10^4 CFU/implant	–
CYCRIPACIAGERRYGTCIYQGRLWAFCC [HNP2, human α-defensin detected in bone marrow extract of the femur head]	–	–	–	–	–	–	–	–	–	–	–	–	exhibited antimicrobial activity
CC[C@H](C)[C@H](NC(=O)[C@H](CCCCN)NC(=O)[C@H](CCCCN)NC(=O)[C@@H](CC(C)C)NC(=O)[C@H](CC(C)C)NC(=O)[C@H](CCCCN)NC(=O)[C@H](CCSC)NC(=O)[C@H](Cc1c[nH]c2ccccc12)NC(=O)[C@H](CCCCN)NC(=O)CN)C(=O)N[C@@H](CC(C)C)C(=O)N[C@@H](CCCCN)C(N)=O [VIII] (H-GKWMKL[dL]KKILK-NH2; N-terminus assumed)	>400	8.0	13.3	4.0	>100	32.0	32.0	18.7	5.0	–	2.4 × 10^3 CFU/implant	6.0 × 10^3 CFU/implant	–
